Reference: patent publication US11185516B2 (Laboratorios Silanes S.A. DE C.V., priority 2016, dated 2021)

How the values were obtained:
[1] = system: IRS2 knockout mice; settings: 100 mg/kg/day, 4 weeks
From the text: Insulin receptor substrate 2 (IRS2) is a cytoplasmic signaling molecule that mediates effects of insulin, insulin-like growth factor 1, and other cytokines by acting as a molecular adaptor between diverse receptor tyrosine kinases and downstream effectors. Mice lacking IRS2 (e.g., IRS2 knockout mice) have a diabetic phenotype and increased serum leptin levels. Leptin is a hormone made by adipose cells that regulates appetite and inhibits hunger.
The levels of fasting serum leptin, at the beginning and at the end of the treatments, were determined with a kit (Sigma) following the instructions by the manufacturer.

[2] = molecular target: GPBP (Mus musculus, UniProt Q9EQG9); settings: 10 mM, 3 h, FIG. 6B
Chain of GPBP (Mus musculus, UniProt Q9EQG9) (Q9EQG9 whole entry): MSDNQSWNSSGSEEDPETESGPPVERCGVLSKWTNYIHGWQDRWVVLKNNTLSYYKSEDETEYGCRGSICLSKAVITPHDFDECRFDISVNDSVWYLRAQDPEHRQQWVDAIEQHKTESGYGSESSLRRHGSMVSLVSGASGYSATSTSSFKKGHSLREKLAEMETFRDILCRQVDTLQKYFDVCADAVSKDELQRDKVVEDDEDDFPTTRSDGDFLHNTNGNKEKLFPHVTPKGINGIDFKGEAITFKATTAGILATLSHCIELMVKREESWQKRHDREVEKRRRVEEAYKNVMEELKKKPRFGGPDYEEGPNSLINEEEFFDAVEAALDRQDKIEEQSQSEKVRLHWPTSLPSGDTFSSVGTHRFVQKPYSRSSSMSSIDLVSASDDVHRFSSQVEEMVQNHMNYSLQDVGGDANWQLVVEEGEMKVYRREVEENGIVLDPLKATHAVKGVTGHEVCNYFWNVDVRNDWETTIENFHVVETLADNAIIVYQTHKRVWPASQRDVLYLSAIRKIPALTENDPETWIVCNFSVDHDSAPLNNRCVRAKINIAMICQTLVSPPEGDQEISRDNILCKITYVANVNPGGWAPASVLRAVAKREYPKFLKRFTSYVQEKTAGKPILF
Protocol: The cells were lysed in a lyse buffer ([…], […], 1% Triton X-100, 1 μM phenylmethylsulphonylfluoride (PMSF) and 10 μg/mL leupeptin) for 30 min at 4° C. Lysates were centrifuged at 16000×g for 5 min at 4° C. and the total protein concentration of the supernatants determined with the Bradford reagent (Bio-Rad). The samples were analyzed by Western blot using the anti-GPBP mAb-N27 and detected with chemoluminiscence (ECL Prime, GE Healthcare).

[3] = system: C57BL/6 mice; experiment: Glycemia and dietary intake in C57BL/6 mice; type: in vivo, mouse; settings: 1 week
From the text: The mean glycemic values at the beginning and end of the experiment are represented for each group (n=3) with their standard deviations.

[4] = molecular target: GPBP (Homo sapiens, UniProt Q9Y5P4); settings: 1 mM, FIG. 6A
Protocol: The reaction mixtures (25 μl) were incubated at 30° C. with shaking (350 rpm) for 15 min, and then analyzed by SDS PAGE. The proteins were electrotransferred to a PVDF membrane (Immobilon P, Millipore). The membranes were subjected to autoradiography (^32P), and then detection with anti-FLAG antibodies (ECL Prime, GE Healthcare, WB anti-FLAG).

[5] = system: proIL-1β, TNFα, iNOS, IL-6, MCP-1 and IL-12; experiment: Inflammation marker expression in palmitate-stimulated L1 adipocytes (RT-qPCR); type: cell-based; settings: 10 mM, palmitate 500 μM, 24 h
Protocol: Palmitate is a saturated fatty acid that simulates an experimental obese state. It can be used as a pro-inflammatory stimulant for cytokines such as proIL-1β, TNFα, iNOS, IL-6, MCP-1 and IL-12.
Next, the relative expression of inflammation markers was analyzed by RT and qPCR using HPRT-1 as a normalizer and the untreated cell expression levels as a reference (for MCP-1 and IL-12) or those treated palmitate. After the treatments, culture media were collected and subsequently analyzed, cells were washed with PBS, and RNA was extracted (illustra RNAspin Mini, GE Healthcare) and reverse transcribed (High Capacity cDNA Reverse Transcription Kit, Life Technologies). The expression of the genes that were the object of the study was analyzed by qPCR using specific probes (TaqMan® Gene Expression Assays, Life Technologies). The relative expression (RQ), represented in the figure, was calculated by the ΔΔCt method.

[6] = system: IRS2 knockout mice (KO IRS2); experiment: Body weight in IRS2 knockout mice; type: in vivo, mouse; settings: 100 mg/kg/day, 8 weeks
Protocol: Body weight of the mice was measured prior to the onset of treatment, at 4 weeks after treatment, and at 8 weeks after treatment. There were 8 mice in each group at the pre-treatment and 4-week treatment time points. […] Statistical differences between the experimental groups shown in FIG. 20 were assessed by Student's T test. P value of <0.05 is indicated by *.

[7] = molecular target: T1, GPBP (Homo sapiens, UniProt Q9Y5P4)
T1 sequence (Q9Y5P4 1-624): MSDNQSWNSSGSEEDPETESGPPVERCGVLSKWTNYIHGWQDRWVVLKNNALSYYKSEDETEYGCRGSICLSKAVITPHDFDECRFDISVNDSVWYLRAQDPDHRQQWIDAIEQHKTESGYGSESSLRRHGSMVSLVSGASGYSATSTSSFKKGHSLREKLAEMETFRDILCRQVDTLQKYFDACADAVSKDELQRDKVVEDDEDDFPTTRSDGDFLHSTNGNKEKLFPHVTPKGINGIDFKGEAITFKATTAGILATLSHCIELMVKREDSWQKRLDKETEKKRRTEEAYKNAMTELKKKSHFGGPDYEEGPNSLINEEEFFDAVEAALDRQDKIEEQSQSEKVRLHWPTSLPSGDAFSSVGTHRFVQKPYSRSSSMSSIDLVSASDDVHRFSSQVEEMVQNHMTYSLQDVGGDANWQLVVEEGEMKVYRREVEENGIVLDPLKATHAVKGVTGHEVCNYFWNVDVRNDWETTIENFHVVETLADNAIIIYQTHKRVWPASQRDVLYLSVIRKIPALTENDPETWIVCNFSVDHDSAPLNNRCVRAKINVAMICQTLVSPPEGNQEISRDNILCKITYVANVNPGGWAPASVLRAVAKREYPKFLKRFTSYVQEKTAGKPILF
Protocol: HeLa cells, cultured in DMEM, supplemented with 10% fetal bovine serum (FBS), and penicillin/streptomycin, were treated or not (control) with SLN1 or SLN2 1 mM for 24 h. After treatment, cells were washed with PBS, collected with a cell scrapper in PBS, and centrifuged (1850g×10 min, 4° C.). Subsequently, cell precipitates were dispersed in five volumes of hypotonic solution (10 mM HEPES, pH 7.9, 1.5 mM MgCl2, 10 mM KCl, 0.2 mM PMSF, 0.5 M DTT), centrifuged (1850×g, 5 min, 4° C.), and then dispersed again in 3 volumes of hypotonic solution and stored in ice for 10 min. Cells were then lysed with a Dounce homogenizer (18 pestle movements) and centrifuged (3300×g, 15 min, 4° C.). Supernatants (cytoplasmic fraction) were put into a concentrated solution (10×) of 30 mM HEPES, pH 7.9, 140 mM KCl, 0.3 mM MgCl2, and centrifuged for 1 h at 100,000×g. Supernatants were dialyzed against 50 volumes of dialysis solution (20 mM HEPES, pH 7.9, 20% glycerol, 100 mM KCl, 0.2 mM EDTA, 0.2 mM PMSF, 0.5 M DTT), cleared (25000×g, 20 min, 4° C.), and concentrated (Microcon 10K). Then, protein concentration was determined (Bio-Rad) and samples were stored at −80° C. Similar extract quantities were analyzed via gel filtration, using a Superdex 200 column, balanced with PBS (5 GE Healthcare), and a Hitachi HPLC device, collecting fractions of 500 μL. Equivalent fraction volumes were analyzed via Western blots with anti-GPBP N27-HRP antibodies.

[8] = system: VAPA and VAMPs; experiment: Colocalization of VAPA and VAMPs (FIG. 18)

CN(C)C(=N)NC(=N)N [Metformin glycinate, N,N-dimethylimidodicarbonimidic diamide glycinate]
reduction of fasting serum leptin levels compared to metformin hydrochloride [1]: greater reduction of fasting serum leptin levels | fasting serum leptin levels ([1]; end vs beginning of treatment): reduced fasting serum leptin levels | GPBP dephosphorylation vs untreated or metformin treated cells [2]: more GPBP dephosphorylation | glycemia, end vs beginning ([3]; 100 mg/kg/day mixed with solid food, n=3): significantly reduced glycemia | extent of glycemia reduction compared to metformin hydrochloride ([3]; 100 mg/kg/day): to a greater extent | food intake compared to untreated mice ([3]; 100 mg/kg/day): food intake was greater | Tmax, comparative analysis (620 mg BID vs metformin hydrochloride 1000 mg BID): statistically significant differences | bioequivalence (90% C.I. in magnitude and velocity) (620 mg against metformin hydrochloride 500 mg): within the theoretical ranges of bioequivalence | pharmacokinetic parameters of test vs reference (metformin hydrochloride) (Stage B, multiple doses): similar | GPBP auto-phosphorylation activity [4]: inhibition of GPBP auto-phosphorylation activity | anti-inflammatory effectiveness, comparison of the two salts [5]: significantly more effective than metformin hydrochloride | inflammatory response of palmitate-stimulated adipocytes [5]: attenuated the inflammatory response | average body weight, post- vs pre-treatment [6]: significantly lower after 8 weeks than before treatment | high molecular weight GPBP aggregates ([7]; 1 mM, 24 h): high molecular weight aggregates formed | GPBP-LKB1 aggregates ([7]; FIG. 14): dissociates GPBP-LKB1 aggregates | colocalization of VAPA and VAMPS [8]: reduced colocalization
